Measured values from patent US20200375987A1, “METALLO-BETA-LACTAMASE INHIBITORS AND METHODS OF USE THEREOF” (priority 2018, published 2020).
pIC50: −log10 of the molar value.

Key:
NDM-1 = NDM-1 (Klebsiella pneumoniae, UniProt C7C422); assay: Enzyme activity: determination of IC50, fluorescence assay with CCF2-FA substrate (NDM-1); type: biochemical; details: 1 pM enzyme, 1.25 μM CCF2-FA, 2 hours at 25° C.; read-out: NDM1 IC50
Summary of the method: (§1)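 Metallo-β-lactamase activity read by fluorescence against CCF2-FA (1.25 μM final) in 100 mM KH2PO4 pH 7 with 0.005% Tween-20 and 10 μM ZnSO4; enzyme final at 1 pM NDM-1, 2 pM IMP-1 or 30 pM VIM-1. Inhibitor at 20 to 0.00063 μM, 2 h at 25° C; IC50 by 4-parameter fit.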

IMP-1 = IMP-1 (Serratia marcescens, UniProt P52699); assay: Enzyme activity: determination of IC50, fluorescence assay with CCF2-FA substrate (IMP-1); type: biochemical; details: 2 pM enzyme, 1.25 μM CCF2-FA, 2 hours at 25° C.; read-out: IMP1 IC50
Summary of the method: as §1

VIM-1 = VIM-1 (Pseudomonas aeruginosa, UniProt A0A0F7KYQ8); assay: Enzyme activity: determination of IC50, fluorescence assay with CCF2-FA substrate (VIM-1); type: biochemical; details: 30 pM enzyme, 1.25 μM CCF2-FA, 2 hours at 25° C.; read-out: VIM1 IC50
Summary of the method: as §1

VIM-2 = VIM-2 (Escherichia coli, UniProt Q5U7L7); assay: Enzyme activity: determination of IC50 (VIM-2); type: biochemical; details: read-out: VIM2 IC50
[1] = test system: Escherichia coli expressing NDM-1 (CLB30016); assay: Antibiotic potentiation activity: synergistic concentration (MITC95) with imipenem; type: cell-based; details: imipenem 1 μg/mL; lowest concentration inhibiting 95% of growth; 35° C., 22-24 hours
Summary of the method: (§2)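 Clinical MBL-expressing strains diluted into 1.1× CAMHB were incubated with compound plus imipenem at 1 μg/mL for 22–24 h at 35 °C, then absorbance was read. MITC95 is the lowest compound concentration giving 95% growth inhibition in the presence of imipenem.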

[2] = test system: Klebsiella pneumoniae expressing VIM-1 (IHMA599644); assay: as above; type: cell-based; details: imipenem 1 μg/mL; lowest concentration inhibiting 95% of growth; 35° C., 22-24 hours
Summary of the method: as §2

[3] = test system: Serratia marcescens expressing IMP-1 (CL5741); assay: as above; type: cell-based; details: imipenem 1 μg/mL; lowest concentration inhibiting 95% of growth; 35° C., 22-24 hours
Summary of the method: as §2

[4] = test system: P. aeruginosa MB9798 (efflux WT, IMP-1); assay: Efflux: concentration of MBL inhibitor restoring susceptibility to imipenem (MITC95), efflux+ strain; type: cell-based, Pseudomonas aeruginosa; details: imipenem at 2 μg/mL in the presence of a class A, C, D serine β-lactamase inhibitor closely related to relebactam
Summary of the method: (§3)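 Isogenic P. aeruginosa PAO1 strains, efflux+ and efflux−, transformed with IMP-1 plasmid, were tested by microbroth MIC with fixed imipenem, usually at CLSI breakpoint, plus fixed class A/C β-lactamase inhibitor against AmpC. MBL inhibitor was serially titrated; the concentration restoring susceptibility was recorded.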

[5] = test system: P. aeruginosa MB9799 (efflux mutant, IMP-1); assay: Efflux: concentration of MBL inhibitor restoring susceptibility to imipenem (MITC95), efflux− strain; type: cell-based, Pseudomonas aeruginosa; details: imipenem at 2 μg/mL in the presence of a class A, C, D serine β-lactamase inhibitor closely related to relebactam
Summary of the method: as §3

IMP-1, sequence (P52699 19-246, looked up, species assumed): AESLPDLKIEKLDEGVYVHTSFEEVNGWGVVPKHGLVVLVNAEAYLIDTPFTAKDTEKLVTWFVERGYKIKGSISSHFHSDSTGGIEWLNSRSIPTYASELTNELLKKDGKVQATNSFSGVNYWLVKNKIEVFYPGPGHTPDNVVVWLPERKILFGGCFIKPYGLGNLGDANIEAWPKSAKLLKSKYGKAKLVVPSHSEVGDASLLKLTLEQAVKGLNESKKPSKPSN
NDM-1, sequence (C7C422 29-270, looked up, species assumed): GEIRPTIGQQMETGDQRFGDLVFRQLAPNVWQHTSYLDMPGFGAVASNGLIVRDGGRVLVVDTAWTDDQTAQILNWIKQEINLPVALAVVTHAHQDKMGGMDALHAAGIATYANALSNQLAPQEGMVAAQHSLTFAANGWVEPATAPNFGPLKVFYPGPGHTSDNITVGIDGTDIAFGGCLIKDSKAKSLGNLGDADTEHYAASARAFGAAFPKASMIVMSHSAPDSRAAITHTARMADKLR

| SMILES | pIC50 (NDM-1) | pIC50 (IMP-1) | pIC50 (VIM-1) | pIC50 (VIM-2) | CLB30016 E.coli MITC95 NDM [1] [µM] | IHMA599644 K.pneumoniae MITC95 uM VIM [2] [µM] | CL5741 S.marcescens MITC95 uM IMP [3] [µM] | MB9798 MITC95 P. aeruginosa Efflux WT [4] [µM] | MB9799 MITC95 P. aeruginosa Efflux Mutant [5] [µM] |
| --- | --- | --- | --- | --- | --- | --- | --- | --- | --- |
| NS(=O)(=O)c1c(S(=O)(=O)N[C@@H]2CCNC2)ccc(N2CCc3nc(O)ccc3C2)c1-c1nnn[nH]1 [Example 25, 4-(2-hydroxy-7,8-dihydro-1,6-naphthyridin-6(5H)-yl)-N1-[(3R)-pyrrolidin-3-yl]-3-(1H-tetrazol-5-yl)benzene-1,2-disulfonamide] | 8.51 | 8.21 | 8.96 | 8.32 | 0.39 | 1.56 | 0.78 | 6.25 | 0.78 |
| NS(=O)(=O)c1c(S(=O)(=O)N[C@@H]2CCNC2)ccc(N2CCn3nc(C(F)(F)F)nc3C2)c1-c1nn[nH]n1 [Example 4, (R)—N^1-(pyrrolidin-3-yl)-3-(2H-tetrazol-5-yl)-4-(2-(trifluoromethyl)-5,6-dihydro-[1,2,4]triazolo[1,5-a]pyrazin-7(8H)-yl)benzene-1,2-disulfonamide] | 8.65 | 8.66 | 9.46 | 9.32 | 3.13 | 6.25 | 6.25 | 25.00 | 3.13 |
| NC[C@H](O)CNS(=O)(=O)c1ccc(N2CCCn3ccnc32)c(-c2nnn[nH]2)c1S(N)(=O)=O [Example 18, (S)-N1-(3-amino-2-hydroxypropyl)-4-(6,7-dihydroimidazo[1,2-a]pyrimidin-8(5H)-yl)-3-(1H-tetrazol-5-yl)benzene-1,2-disulfonamide] | 8.73 | 8.09 | 9.12 | 8.70 | 0.10 | 1.56 | 0.39 | 3.13 | 0.78 |
| NS(=O)(=O)c1c(S(=O)(=O)N[C@@H]2CCNC2)ccc(N2CCCn3ccnc32)c1-c1nnn[nH]1 [Example 13, (R)-4-(6,7-dihydroimidazo[1,2-a]pyrimidin-8(5H)-yl)-N1-(pyrrolidin-3-yl)-3-(1H-tetrazol-5-yl)benzene-1,2-disulfonamide] | 9.11 | 8.01 | 9.41 | 8.67 | 0.20 | 0.78 | 0.39 | 1.56 | 0.78 |
| NS(=O)(=O)c1c(S(=O)(=O)N[C@@H]2CCNC2)ccc(N2CCc3cccnc32)c1-c1nnn[nH]1 [Example 32, 4-(2,3-dihydro-1H-pyrrolo[2,3-b]pyridin-1-yl)-N1-[(3R)-pyrrolidin-3-yl]-3-(1H-tetrazol-5-yl)benzene-1,2-disulfonamide] | 9.68 | 8.94 | 9.77 | 9.41 | 1.56 | 3.13 | 1.56 | 3.13 | 1.56 |
| NCC(CN)NS(=O)(=O)c1ccc(N2CCn3ccnc3C2)c(-c2nn[nH]n2)c1S(N)(=O)=O [Example 10, N1-(1,3-diaminopropan-2-yl)-4-(5,6-dihydroimidazo[1,2-a]pyrazin-7(8H)-yl)-3-(2H-tetrazol-5-yl)benzene-1,2-disulfonamide] | 8.93 | 8.53 | 9.60 | 9.00 | 0.10 | 1.56 | 0.39 | 3.13 | 1.56 |
| NC[C@@H](O)CNS(=O)(=O)c1ccc(N2CCn3ccnc32)c(-c2nnn[nH]2)c1S(N)(=O)=O [Example 19, (R)—N1-(3-amino-2-hydroxypropyl)-4-(2,3-dihydro-1H-imidazo[1,2-a]imidazol-1-yl)-3-(1H-tetrazol-5-yl)benzene-1,2-disulfonamide] | 8.99 | 7.92 | 8.22 | 8.01 | 0.20 | 3.13 | 0.78 | 6.25 | 1.56 |
| NS(=O)(=O)c1c(S(=O)(=O)N[C@@H]2CCNC2)ccc(N2CCc3[nH]ncc3C2)c1-c1nnn[nH]1 [Example 30, N1-[(3R)-pyrrolidin-3-yl]-4-(1,4,6,7-tetrahydro-5H-pyrazolo[4,3-c]pyridin-5-yl)-3-(1H-tetrazol-5-yl)benzene-1,2-disulfonamide] | 9.72 | 8.95 | 9.60 | 9.01 | 0.78 | 6.25 | 1.56 | 6.25 | 1.56 |
| NC[C@H](CO)NS(=O)(=O)c1ccc(N2CCCn3ccnc32)c(-c2nnn[nH]2)c1S(N)(=O)=O [Example 15, (R)-N1-(1-amino-3-hydroxypropan-2-yl)-4-(6,7-dihydroimidazo[1,2-a]pyrimidin-8(5H)-yl)-3-(1H-tetrazol-5-yl)benzene-1,2-disulfonamide] | 8.63 | 8.05 | 9.00 | 8.58 | 0.20 | 1.56 | 0.39 | 3.13 | 0.78 |
| NC[C@@H](O)CNS(=O)(=O)c1ccc(N2CCc3cccnc32)c(-c2nn[nH]n2)c1S(N)(=O)=O [Example 36, (R)—N1-(3-amino-2-hydroxypropyl)-4-(2,3-dihydro-1H-pyrrolo [2,3-b]pyridin-1-yl)-3-(2H-tetrazol-5-yl)benzene-1,2-disulfonamide] | 9.44 | 8.85 | 9.57 | 9.31 | 1.56 | 3.13 | 1.56 | 12.50 | 0.78 |
| NC[C@@H](O)CNS(=O)(=O)c1ccc(N2CCC(CO)n3ccnc32)c(-c2nn[nH]n2)c1S(N)(=O)=O (stereo partly drawn) [Example 38, N1-((R)-3-amino-2-hydroxypropyl)-4-(5-(hydroxymethyl)-6,7-dihydroimidazo[1,2-a]pyrimidin-8(5H)-yl)-3-(2H-tetrazol-5-yl)benzene-1,2-disulfonamide] | 9.19 | 8.38 | 9.40 | 8.62 | 0.20 | 1.56 | 0.78 | 1.56 | 0.78 |
| CNC(=O)c1nsc2c1CCN(c1ccc(S(=O)(=O)N[C@@H]3CCNC3)c(S(N)(=O)=O)c1-c1nnn[nH]1)C2 [Example 28, N-methyl-6-{4-[(3R)-pyrrolidin-3-ylsulfamoyl]-3-sulfamoyl-2-(1H-tetrazol-5-yl)phenyl}-4,5,6,7-tetrahydroisothiazolo[5,4-c]pyridine-3-carboxamide] | 9.68 | 9.55 | 9.82 | 9.32 | 0.78 | 6.25 | 1.56 | 12.50 | 3.13 |
| NC[C@@H](O)CNS(=O)(=O)c1ccc(-n2ccnc2)c(-c2nn[nH]n2)c1S(N)(=O)=O [Example 41, (R)—N1-(3-amino-2-hydroxypropyl)-4-(1H-imidazol-1-yl)-3-(2H-tetrazol-5-yl)benzene-1,2-disulfonamide] | 9.18 | 8.53 | 8.98 | 9.02 | 0.78 | 1.56 | 0.78 | 1.56 | 0.78 |
